The values that follow come from patent publication US7435822B2, “3-(diheteroarylmethylene)-8-azabicyclo[3.2.1]octane and 3-((aryl)(heteroaryl)methylene)-8-azabicyclo[3.2.1]octane derivatives” (Janssen Pharmaceutica N.V., priority 2004, dated 2008).

pKi: −log10 of the molar value. Like-named read-outs stand apart in the source and are kept apart here.

In one assay the target is T1, δ-opioid receptor (Rattus norvegicus, UniProt P33533).
T1 construct: the forebrains are homogenized in Tris buffer in a Teflon®-glass homogenizer; from tissue; host or cells: rat (male Wistar) forebrain, particulate membrane preparation
T1 sequence (P33533 whole entry): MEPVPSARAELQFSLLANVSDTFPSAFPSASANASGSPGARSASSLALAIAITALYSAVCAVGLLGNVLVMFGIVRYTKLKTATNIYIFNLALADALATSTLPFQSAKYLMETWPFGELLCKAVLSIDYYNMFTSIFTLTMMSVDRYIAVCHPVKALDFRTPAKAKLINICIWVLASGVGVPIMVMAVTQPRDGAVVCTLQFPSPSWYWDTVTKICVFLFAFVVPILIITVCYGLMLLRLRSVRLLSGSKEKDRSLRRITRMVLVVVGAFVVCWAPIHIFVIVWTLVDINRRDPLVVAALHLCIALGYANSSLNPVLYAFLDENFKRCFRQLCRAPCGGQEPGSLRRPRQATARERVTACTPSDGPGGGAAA
As to the kind of experiment: Rat brain δ-opioid receptor binding assay. The conditions noted are these: for μ/δ (ratio of the μ-opioid receptor binding to the δ-opioid receptor binding): ratio of Ki μ to Ki δ, rat brain; for Ki: rat forebrain particulate preparation, [3H]DPDPE, 25° C., read-out: Ki (nM) δ. The protocol: Rat Brain δ-Opioid Receptor Binding Assay
Male, Wistar rats (150-250 g, VAF, Charles River, Kingston, N.Y.) are killed by cervical dislocation, and their brains removed and placed immediately in ice cold Tris HCl buffer (50 mM, pH 7.4). The forebrains are separated from the remainder of the brain by a coronal transection, beginning dorsally at the colliculi and passing ventrally through the midbrain-pontine junction. After dissection, the forebrains are homogenized in Tris buffer in a Teflon®-glass homogenizer. The homogenate is diluted to a concentration of 1 g of forebrain tissue per 100 mL Tris buffer and centrifuged at 39,000×G for 10 min. The pellet is resuspended in the same volume of Tris buffer with several brief pulses from a Polytron homogenizer. This particulate preparation is used for the δ-opioid binding assays. […] The tubes and filters are rinsed three times with 4 mL of 10 mM HEPES (pH 7.4), and the radioactivity associated with the filter circles determined using Formula 989 scintillation fluid (New England Nuclear, Boston, Mass.) in a scintillation counter.
(§1) The data are used to calculate either the % inhibition compared to control binding (when only a single concentration of test compound is evaluated) or a Ki value (when a range of concentrations is tested).
% Inhibition was calculated as follows: […]
Ki value is calculated using the LIGAND (Munson, P. J. and Rodbard, D., Anal. Biochem. 107: 220-239,1980) data analysis program.

The target in another assay is T2, μ-opioid receptor (Rattus norvegicus, UniProt P33535).
T2 construct: the forebrains are homogenized in Tris buffer in a Teflon®-glass homogenizer; from tissue; host or cells: rat (male Wistar) forebrain, particulate membrane preparation
T2 sequence (P33535 whole entry): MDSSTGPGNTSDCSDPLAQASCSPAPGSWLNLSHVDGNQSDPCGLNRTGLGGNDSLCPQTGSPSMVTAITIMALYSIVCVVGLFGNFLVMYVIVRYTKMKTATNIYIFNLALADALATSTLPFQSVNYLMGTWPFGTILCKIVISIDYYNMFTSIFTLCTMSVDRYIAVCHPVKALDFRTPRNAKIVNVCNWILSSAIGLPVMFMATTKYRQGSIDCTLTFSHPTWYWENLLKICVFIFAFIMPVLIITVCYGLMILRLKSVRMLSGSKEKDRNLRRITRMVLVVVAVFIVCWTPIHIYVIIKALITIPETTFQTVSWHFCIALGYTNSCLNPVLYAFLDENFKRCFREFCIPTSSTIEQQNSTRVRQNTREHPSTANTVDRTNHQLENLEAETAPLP
As to the kind of experiment: Rat brain μ-opioid receptor binding assay. The note with it: for Ki: rat forebrain particulate preparation, [3H]DAMGO, 25° C., read-out: Ki (nM) μ. On the procedure:
Rat Brain μ-Opioid Receptor Binding Assay
Male, Wistar rats (150-250 g, VAF, Charles River, Kingston, N.Y.) are killed by cervical dislocation and their brains removed and placed immediately in ice cold Tris HCl buffer (50 mM, pH 7.4). The forebrains are separated from the remainder of the brain by a coronal transection, beginning dorsally at the colliculi and passing ventrally through the midbrain-pontine junction. After dissection, the forebrains are homogenized in Tris buffer in a Teflon®-glass homogenizer. The homogenate is diluted to a concentration of 1 g of forebrain tissue per 100 mL Tris buffer and centrifuged at 39,000×G for 10 min. The pellet is resuspended in the same volume of Tris buffer with several brief pulses from a Polytron homogenizer. This particulate preparation is used for the μ-opioid binding assays.
as §1
% Inhibition is calculated as follows: […]

With `c1ccc(C(=C2CC3CCC(C2)N3)c2ccsc2)cc1` [Example 2, 3-(Phenyl-thiophen-3-yl-methylene)-8-aza-bicyclo[3.2.1]octane], the pKi (in general, −log10 of the Ki, conventionally taken in molar units) at δ-opioid receptor was 7.17.
Consider `CC(C)=CCN1C2CCC1CC(=C(c1ccccc1)c1ccsc1)C2` [Example 3, 8-(3-Methyl-but-2-enyl)-3-(phenyl-thiophen-3-yl-methylene)-8-aza-bicyclo[3.2.1]octane], for which, at δ-opioid receptor, the pKi is 7.68 and the “μ/δ (ratio of the μ-opioid receptor binding to the δ-opioid receptor binding)” value is reported as 8.37. Moreover, the inhibition constant Ki (commonly a measure of affinity in units of concentration, obtained from inhibition or displacement) on μ-opioid receptor turned out to be 177 nM.
`c1ccc(CCN2C3CCC2CC(=C(c2ccccc2)c2ccsc2)C3)cc1` [Example 4, 8-Phenethyl-3-(phenyl-thiophen-3-yl-methylene)-8-aza-bicyclo[3.2.1]octane]: the Ki was 903 nM at δ-opioid receptor and 265 nM on μ-opioid receptor. Besides, the “μ/δ (ratio of the μ-opioid receptor binding to the δ-opioid receptor binding)” value on δ-opioid receptor amounted to 0.29.
The like results for `Cc1ccccc1CN1C2CCC1CC(=C(c1ccccc1)c1ccsc1)C2` [Example 5, 8-(2-Methyl-benzyl)-3-(phenyl-thiophen-3-yl-methylene)-8-aza-bicyclo[3.2.1]octane] were, in that order, 193 nM, 4110 nM and 21.28.
As to `Clc1ccccc1CN1C2CCC1CC(=C(c1ccccc1)c1ccsc1)C2` [Example 6, 8-(2-Chloro-benzyl)-3-(phenyl-thiophen-3-yl-methylene)-8-aza-bicyclo[3.2.1]octane], the Ki at δ-opioid receptor came to 229 nM; on μ-opioid receptor, 1310 nM.
As for `c1ccc(C(=C2CC3CCC(C2)N3Cc2cccs2)c2ccsc2)cc1` [Example 7, 3-(Phenyl-thiophen-3-yl-methylene)-8-thiophen-2-ylmethyl-8-aza-bicyclo[3.2.1]octane], at δ-opioid receptor, the pKi is 7.20 and the “μ/δ (ratio of the μ-opioid receptor binding to the δ-opioid receptor binding)” value is 6.69. Besides, the Ki on μ-opioid receptor was determined as 418 nM.
As to `Cc1ccsc1CN1C2CCC1CC(=C(c1ccccc1)c1ccsc1)C2` [Example 8, 8-(3-Methyl-thiophen-2-ylmethyl)-3-(phenyl-thiophen-3-yl-methylene)-8-aza-bicyclo[3.2.1]octane], the pKi on δ-opioid receptor is 7.42.
Consider `Cc1ccc(CN2C3CCC2CC(=C(c2ccccc2)c2ccsc2)C3)s1` [Example 9, 8-(5-Methyl-thiophen-2-ylmethyl)-3-(phenyl-thiophen-3-yl-methylene)-8-aza-bicyclo[3.2.1]octane], for which, at δ-opioid receptor, the pKi is 7.41 and the “μ/δ (ratio of the μ-opioid receptor binding to the δ-opioid receptor binding)” value is on record as 10.66. For the same compound, the Ki on μ-opioid receptor stood at 413 nM.
Regarding `Oc1cccc(C(=C2CC3CCC(C2)N3)c2ccsc2)c1` [Example 20, 3-[(8-Aza-bicyclo[3.2.1]oct-3-ylidene)-thiophen-3-yl-methyl]-phenol], the pKi at δ-opioid receptor was 8.20; at μ-opioid receptor, 7.61. For the same compound, at δ-opioid receptor, the “μ/δ (ratio of the μ-opioid receptor binding to the δ-opioid receptor binding)” value is reported as 3.93.
`CC(C)=CCN1C2CCC1CC(=C(c1ccsc1)c1cccc(O)c1)C2` [Example 21, 3-{[8-(3-Methyl-but-2-enyl)-8-aza-bicyclo[3.2.1]oct-3-ylidene]-thiophen-3-yl-methyl}-phenol]: at δ-opioid receptor, the pKi was 9.04 and the “μ/δ (ratio of the μ-opioid receptor binding to the δ-opioid receptor binding)” value was found to be 7.8. Besides, the pKi at μ-opioid receptor is 8.15.
Taken in the same sequence, the figures for `C=CCN1C2CCC1CC(=C(c1ccsc1)c1cccc(O)c1)C2` [Example 22, 3-[(8-Allyl-8-aza-bicyclo[3.2.1]oct-3-ylidene)-thiophen-3-yl-methyl]-phenol] were 8.77, 15.6 and 7.59.
For the compound `Oc1cccc(C(=C2CC3CCC(C2)N3CCc2ccccc2)c2ccsc2)c1` [Example 23, 3-[(8-Phenethyl-8-aza-bicyclo[3.2.1]oct-3-ylidene)-thiophen-3-yl-methyl]-phenol], the Ki on δ-opioid receptor stood at 437 nM. The same compound had a pKi on μ-opioid receptor of 7.43.
On to `Cc1ccccc1CN1C2CCC1CC(=C(c1ccsc1)c1cccc(O)c1)C2` [Example 24], for which the pKi on δ-opioid receptor is 8.22; at μ-opioid receptor, 7.31. Further, at δ-opioid receptor, the “μ/δ (ratio of the μ-opioid receptor binding to the δ-opioid receptor binding)” value was 8.15.
`Oc1cccc(C(=C2CC3CCC(C2)N3Cc2ccccc2Cl)c2ccsc2)c1` [Example 25, 3-{[8-(2-Chloro-benzyl)-8-aza-bicyclo[3.2.1]oct-3-ylidene]-thiophen-3-yl-methyl}-phenol]: the pKi at δ-opioid receptor was 8.77; at μ-opioid receptor, 7.47. The “μ/δ (ratio of the μ-opioid receptor binding to the δ-opioid receptor binding)” value on δ-opioid receptor is 20.22.
Consider `Oc1cccc(C(=C2CC3CCC(C2)N3Cc2cccs2)c2ccsc2)c1` [Example 26, 3-[Thiophen-3-yl-(8-thiophen-2-ylmethyl-8-aza-bicyclo[3.2.1]oct-3-ylidene)-methyl]-phenol], for which the values for the pKi at δ-opioid receptor and at μ-opioid receptor were 9.77 and 8.27, respectively. In addition, the “μ/δ (ratio of the μ-opioid receptor binding to the δ-opioid receptor binding)” value at δ-opioid receptor turned out to be 31.78.
Turning to `Cc1ccsc1CN1C2CCC1CC(=C(c1ccsc1)c1cccc(O)c1)C2` [Example 27, 3-{[8-(3-Methyl-thiophen-2-ylmethyl)-8-aza-bicyclo[3.2.1]oct-3-ylidene]-thiophen-3-yl-methyl}-phenol], at δ-opioid receptor, the pKi was 8.23 and the “μ/δ (ratio of the μ-opioid receptor binding to the δ-opioid receptor binding)” value amounted to 5.20. The same compound had a pKi at μ-opioid receptor of 7.52.
The like results for `Cc1ccc(CN2C3CCC2CC(=C(c2ccsc2)c2cccc(O)c2)C3)s1` [Example 28, 3-{[8-(5-Methyl-thiophen-2-ylmethyl)-8-aza-bicyclo[3.2.1]oct-3-ylidene]-thiophen-3-yl-methyl}-phenol] were, in that order, 8.78, 7.65 and 7.90.
The like results for `CC(C)=CCN1C2CCC1CC(=C(c1ccc(O)cc1)c1ccsc1)C2` [Example 38, 4-{[8-(3-Methyl-but-2-enyl)-8-aza-bicyclo[3.2.1]oct-3-ylidene]-thiophen-3-yl-methyl}-phenol] were, in that order, 8.27, 17.3 and 7.03.
Taken in the same sequence, the figures for `Oc1ccc(C(=C2CC3CCC(C2)N3CCc2ccccc2)c2ccsc2)cc1` [Example 39] were 6.40, 0.42 and 6.78.
With `Cc1ccccc1CN1C2CCC1CC(=C(c1ccc(O)cc1)c1ccsc1)C2` [Example 40, 4-{[8-(2-Methyl-benzyl)-8-aza-bicyclo[3.2.1]oct-3-ylidene]-thiophen-3-yl-methyl}-phenol], on δ-opioid receptor, the pKi was 7.45 and the “μ/δ (ratio of the μ-opioid receptor binding to the δ-opioid receptor binding)” value is listed as 1.82. The pKi at μ-opioid receptor was 7.19.
With `Oc1ccc(C(=C2CC3CCC(C2)N3Cc2ccccc2Cl)c2ccsc2)cc1` [Example 41, 4-{[8-(2-Chloro-benzyl)-8-aza-bicyclo[3.2.1]oct-3-ylidene]-thiophen-3-yl-methyl}phenol], the pKi was 7.90 on δ-opioid receptor and 7.44 at μ-opioid receptor. For the same compound, the “μ/δ (ratio of the μ-opioid receptor binding to the δ-opioid receptor binding)” value at δ-opioid receptor came to 2.91.
Taken in the same sequence, the figures for `Oc1ccc(C(=C2CC3CCC(C2)N3Cc2cccs2)c2ccsc2)cc1` [Example 42, 4-[Thiophen-3-yl-(8-thiophen-2-ylmethyl-8-aza-bicyclo[3.2.1]oct-3-ylidene) -methyl]phenol] were 8.53, 7.05 and 30.54.
Regarding `Cc1ccsc1CN1C2CCC1CC(=C(c1ccc(O)cc1)c1ccsc1)C2` [Example 43, 4-{[8-(3-Methyl-thiophen-2-ylmethyl)-8-aza-bicyclo[3.2.1]oct-3-ylidene]-thiophen-3-yl-methyl}-phenol], on δ-opioid receptor, the pKi was 7.50 and the “μ/δ (ratio of the μ-opioid receptor binding to the δ-opioid receptor binding)” value turned out to be 5.94. Also, the Ki at μ-opioid receptor is 187 nM.
For the compound `Cc1ccc(CN2C3CCC2CC(=C(c2ccc(O)cc2)c2ccsc2)C3)s1` [Example 44, 4-{[8-(5-Methyl-thiophen-2-ylmethyl)-8-aza-bicyclo[3.2.1]oct-3-ylidene]-thiophen-3-yl-methyl}-phenol], at δ-opioid receptor, the pKi was 8.04 and the “μ/δ (ratio of the μ-opioid receptor binding to the δ-opioid receptor binding)” value is 8.33. The pKi at μ-opioid receptor is 7.12.
